Measurements: ChEMBL document CHEMBL2163324, “Function of the D-alanine:D-alanine ligase lid loop: a molecular modeling and bioactivity study” (J Med Chem, 2012)
pIC50, pKi: −log10 of the molar value.

Tests used:
[1] = Inhibition of Escherichia coli DdlB after 20 mins by malachite green staining-based colorimetric assay; settings: for pIC50: read-out: IC50
[2] = Competitive inhibition of Escherichia coli DdlB after 20 mins by malachite green staining-based colorimetric assay in presence of ATP
Escherichia coli [3] = assay: Inhibition of Escherichia coli DdlB at 500 uM after 20 mins by malachite green staining-based colorimetric assay
Escherichia coli [4] = assay: Inhibition of Escherichia coli DdlB at 250 uM after 20 mins by malachite green staining-based colorimetric assay

| Structure (SMILES) | pIC50 [1] | pKi [2] | inhibition (Escherichia coli [3]) [%] | IC50 [1] | inhibition (Escherichia coli [4]) [%] |
| --- | --- | --- | --- | --- | --- |
| N/C(=N\OC(=O)Nc1cccc(Cl)c1)c1ccno1 | 3.42 | 3.49 | 48 | – | – |
| Cc1cc(C(=N)NOC(=O)Nc2ccc(Cl)cc2)no1 | 3.18 | – | 61 | – | – |
| N/C(=N\OC(=O)Nc1ccc(Cl)cc1)c1cnccn1 | – | – | 77 | ND(Insoluble) | – |
| O=C(N/N=C/c1cc(=O)[nH]c(O)n1)c1ccncc1 | – | – | 62 | ND(Insoluble) | – |
| O=C1NC(=O)C(=C(O)Nc2ccccc2)C(=O)N1 | 3.21 | – | 63 | – | – |
| N/C(=N/OC(=O)c1ccc2nsnc2c1)c1ncon1 | – | – | 78 | ND(Insoluble) | – |
| COc1ccc2c(C)nc(Nc3nc(O)cc(O)n3)nc2c1 | – | – | – | ND(Insoluble) | 70 |
